Data set [1] has as its system ESKOL cells. In words: Annexin V-FITC labelling of ESKOL cells (phosphatidylserine externalisation, flow cytometry). Type of data set: cell-based, human. Conditions: 1 μg/ml, 24 hours; for % Annexin V+ cells: ESKOL cells, after subtraction of control value. From the text:
The induction of apoptosis was further confirmed by assessing the percentage of cells expressing phosphatidylserine at the outer leaflet of the plasma membrane by flow cytometry.
The phosphatidylserine (PS) externalisation, a membrane marker of cells undergoing apoptosis, was quantified by specific binding of FITC-conjugated annexin V (Bender Medsystems, Vienna, Austria), with or without simultaneous labelling with propidium iodide (PI), according to a modification of the technique described by Koopman (Koopman et al, Blood 1994; 84:1415-1420). The percentages of annexin V-FITC positive and PI negative cells were determined by cytometry on an EPICS Altra flow cytometer (Beckman Coulter).
The ESKOL cells (10^6/ml) were cultured in the absence (C=control) or the presence of 1 μg/ml of the various Allanblackia molecules. After 24 hours of incubation, the percentage of cells labelled with Annexin V-FITC was measured by flow cytometry as previously indicated. Results are expressed after subtraction of the value for control unstimulated cells. P values were estimated by Kolmogorov-Smirnov analysis using the Statview software.
On the technique in general: In flow cytometry, cells or beads pass a laser one at a time.

Data set [2] has as its system ESKOL cells. In words: Antiproliferative effect on ESKOL cells (viable cell count, Coulter counter). Type of data set: cell-based, human. Conditions: 1 and 10 μg/ml; 1, 2 or 4 days; FIGS. 1A and 1B. As for the experimental part:
FIG. 1: The antiproliferative effects of M1, M2, M4, M5 and M6 were compared as indicated in the Examples Section on ESKOL cells. ESKOL cells were seeded at 2×10^5 cells/ml in the wells of micro-titration plate in the presence or absence (medium alone: ◯, DMSO: […]) of M1 (□), M2 (▪), M4 (▴), M5 ([…]), M6 (◯) at the concentrations of 1 μg/ml (A) and 10 μg/ml (B). After various times of incubation (1, 2 or 4 days), aliquots were harvested and the concentration of viable cells was measured in a Coulter counter as indicated in the examples.
The anti-proliferative effects of the isolated molecules were investigated on the ESKOL cell line derived from a hairy cell leukemia patient, a chronic B cell malignancy (Harvey et al, Leuk Res. 1991; 15: 733-744).
Cells were routinely cultured at seeding densities of 2×10^6 cells/ml in RPMI-1640 medium supplemented with 2 mM glutamine, 1 mM sodium pyruvate, 100 IU/ml penicillin, 100 μg/ml streptomycin and 10% FCS (PAA Laboratories, Pasching, Austria) and cultures were performed at 37° C. in an humidified atmosphere containing 5% CO2.
For the assay, ESKOL cells were seeded at 2×10^5/ml in 24-well microtitration plate, together with two concentrations (1 and 10 μg/ml) of the […] xanthones or 1% DMSO (solvent) as control. After 1, 2 and 4 days of culture, aliquots of cells were collected and the cell concentration was evaluated by counting the number of viable cells with a Coulter Multisizer counter Z2 (Coultronics, Margency, France) allowing the discrimination between viable and dead cells and debris according to size distribution.
Cells were cultured in duplicates or triplicates and each experiment repeated 2 to 5 times.

The test system of data set [3] is purified B-lymphocytes. In words: MTT cytotoxicity on purified normal B-lymphocytes. Type of data set: cell-based, human. As to conditions: 5 or 10 μg/ml, 48 hours; FIG. 5C. The procedure: (§1) FIG. 5: The effect of the compounds M1, M2, M4, M5 and M6 on the viability and apoptosis of normal lymphocytes was evaluated as indicated in the Examples section. A/ PBMC isolated from the blood of normal volunteers were incubated at 2×10^6/ml for 48 hours in the presence of medium alone (grey bar) or containing 1 μg/ml (black bar) or 10 μg/ml (slashed bars) of the different compounds. At the end of the incubation time, the percentage of enrichment in cytoplasmic nucleosomes was evaluated as indicated in the Examples Section. PBMC (A) and purified B lymphocytes (C) from normal blood donors were incubated for 48 hours with medium alone (grey bar) or containing 5 μg/ml (black bar) or 10 μg/ml (slashed bar) of the selected reagents M1, M2, M4 and M6. Viability was estimated after labelling the cells with a 5 hours pulse of MTT and determination of the absorbance at 540 nm as indicated in the Examples Section.
(§2) Leukemia cells from B-CLL patients were adjusted at 2×10^6/ml and 200 μl aliquots were distributed in triplicate samples in the wells of a 96-well microtitration plate and cultured in the absence or presence of the various reagents. After 18 hours of incubation at 37° C. in a humidified atmosphere containing 5% CO2, 20 μl of a 5 mg/ml solution of MTT (Sigma, St Louis, Mo., USA) were added to the wells for an additional 6 hours incubation. The microplates were centrifuged at 400×g for 20 min, the supernatants carefully discarded and 200 μl of DMSO were added to the wells to dissolve the precipitates of formazan. The optical density was measured with the use of a microplate reader (Victor-2, Wallac, Perkin Elmer, Norwalk, Mont., USA) at the wavelength of 540 nm.
(§3) Blood samples from healthy donors were obtained from the Institut Francais du Sang as residues from platelet preparations. The healthy blood donors were under 60 years old, according to the French legislation, and therefore they could not be exactly age-matched with the B-CLL patients. PBMC were prepared as described elsewhere (Zhao et al, Blood 1998; 92: 1031-1043) and normal B-lymphocytes were purified by positive selection on anti-CD19-coated magnetic beads according to the specifications of the manufacturer (Dynal, Oslo, Norway) (Kern et al, Blood 2004; 103: 679-688). Their purity usually ranged from 92% to 95%, as estimated by labelling with an anti-CD20-phycoerythrin (PE) antibody, and monocyte contamination never exceeded 2% (Kern et al, Blood 2004; 103: 679-688).

Data set [4] deals with normal PBMC. In words: MTT cytotoxicity on normal PBMC. Conditions: 5 or 10 μg/ml, 48 hours; FIG. 5B. Type of data set: cell-based, human. As for the experimental part: as §1, §2, §3
Data set [5] concerns B-CLL cells. In words: MTT viability of freshly isolated B-CLL cells. The format is cell-based, human. As to conditions: FIG. 3, 6 B-CLL patients. As for the experimental part: FIG. 3: The effect of the molecules M1, M2, M4, M5 and M6 on the viability of B-CLL cells was determined. Tumour cells freshly isolated from B-CLL patients were suspended at 2×10^6/ml in complete RPMI-1640 medium and incubated for 48 hours in the presence or absence of either 1 μg/ml (black bars) or 10 μg/ml (gray bars) of the various molecules. MTT was incorporated into the cells during the last 5 hours of incubation and the viability was measured by recording the formation of the formazan precipitate as described in the Examples section. The results are expressed as the percentage of the viability of the treated cells in comparison with control cells incubated with medium alone taken as 100% and represent the mean±SE of 6 B-CLL patients.
Blood samples from B-CLL patients were obtained from the Haematology Department of Hôtel-Dieu hospital (Paris, France) after written informed consent, in accordance with the rules and tenets of the revised Helsinki protocol. Diagnosis was established according to standard clinical and international CLL workshop criteria, including lymphocyte morphology and co-expression of CD5, CD20 and CD23 antigens. A total of 12 patients (6 men and 6 women) with an age ranging 50-84 years (mean±SD: 68±8.8 years) were selected and the time since diagnosis varied between 0 (newly diagnosed patients) and 10 years. The patients were randomly chosen for each type of experiment inasmuch as CD38 and ZAP-70 expression, cytogenetic analysis and mutational VH status were only available for a fraction of them, thus hampering a risk-group analysis. The leukemia B-cells were isolated with purity greater than 96%, as previously described (Zhao et al, Blood 1998; 92: 1031-1043). All the experiments were performed with freshly purified B-CLL leukemia cells.
M1, M2, M4, M5 and M6 were thus tested for their possible action on the viability of these leukemia cells by the MTT assay that relies on the integrity of the mitochondrial succinyl dehydrogenase.
as §2

For data set [6], the system named is ESKOL cells. In words: Enrichment in cytoplasmic nucleosomes (DNA cleavage) in ESKOL cells. Type of data set: cell-based, human. As to conditions: 2 days, 1 or 10 μg/ml; FIG. 2B. As for the experimental part: B/ The percentage of enrichment in cytoplasmic nucleosomes was evaluated simultaneously as a surrogate for DNA cleavage.
The detection of cytoplasmic histone-associated DNA fragments (mono- and oligonucleosomes) was performed in cell lysates from aliquots of 20,000 cells using an ELISA with anti-histone and anti-DNA fragment mAbs (Cell Death Detection ELISA^PLUS, Roche Diagnostics, Indianapolis, Ind., USA) as previously described (Billard et al, Leuk Lymphoma 2002; 43: 1991-2002).

In data set [7] the test system is Plasmodium. Conditions: literature; cited from earlier work.
The subject of data set [8] is human A375 melanoma cell line. As to conditions: Azebaze et al 2006; cited from earlier work.
For data set [9], the system named is SK-OV3 ovarian cancer cells. As to conditions: Lee et al 2005, read-out: IC50 cytotoxic activity; cited from earlier work.
Data set [10] has as its system human A549 lung cancer cells. Conditions: Lee et al 2005, read-out: IC50 cytotoxic activity; cited from earlier work.

The source of these data is patent publication US20110263694A1, “Use of Xanthone Derivatives as a Medicament for Cancer” (MUSEUM NATIONAL D'HISTOIRE NATURELLE, priority 2008, published 2011).

Turning to `COc1ccc2oc3cc(O)c(CC=C(C)C)c(O)c3c(=O)c2c1` [M1, 1,3 dihydroxy-7-methoxy-2(3-methylbut-2enyl)xanthone], the “% Annexin V+ cells” value in data set [1] is 5.6%. Further, the “proliferation of ESKOL cells” value in data set [2] is “markedly and dose-dependently slowed down the proliferation”. Further, the “cytotoxic effect on purified normal B-lymphocytes (MTT)” value in data set [3] is on record as “no toxic effect”. For the same molecule, the “cytotoxic effect on normal PBMC (MTT)” value in data set [4] is “no toxic effect”. Besides, the “viability of B-CLL cells (MTT)” value in data set [5] (1 μg/ml) was “no significant effect”; in data set [5] (10 μg/ml) it was “marked reduction in the viability”.

Regarding `CC(C)=CCc1c(O)cc2oc3c(c(=O)c2c1O)C(CC=C(C)C)(CC=C(C)C)C(=O)C(O)=C3` [M4, allanxanthone C], the “increase in the percentage of Annexin V positive ESKOL cells (in words)” value (shortened to “increase in the percentage”) in data set [1] is given as “to a lesser degree”. The “% Annexin V+ cells” value in data set [1] was 10.2%. Also, the “proliferation of ESKOL cells” value in [2] was “markedly and dose-dependently slowed down the proliferation”. Moreover, the “cytotoxic effect on purified normal B-lymphocytes (MTT)” value in [3] is recorded as “no toxic effect”. For the same molecule, the “DNA breakdown (enrichment in cytoplasmic nucleosomes) in ESKOL cells” value (from here on “DNA breakdown”) in data set [6] was “potent inducers of DNA breakdown”. The “cytotoxic effect on normal PBMC (MTT)” value in data set [4] is on record as “no toxic effect”. The “viability of B-CLL cells (MTT)” value in data set [5] (1 μg/ml) is reported as “no significant effect”; in data set [5] (10 μg/ml), “marked reduction in the viability”.

On to `CC(C)=CCC/C(C)=C/Cc1c(O)c(O)cc2oc3cc(O)c(CC=C(C)C)c(O)c3c(=O)c12` [M5, norcowanin], for which, in data set [7], the antiplasmodial activity entry is listed as “antiplasmodial activity”. Further, in data set [1], the “increase in the percentage” value is “to a lesser degree” and the “% Annexin V+ cells” value came to 9.4%. Moreover, in data set [2], the “proliferation of ESKOL cells” value is “markedly and dose-dependently slowed down the proliferation”. Besides, the “DNA breakdown” value in [6] is on record as “potent inducers of DNA breakdown”. In addition, in data set [8], the “cytotoxicity on A375 cell line” value is given as “weak cytotoxicity”. For the same molecule, the “viability of B-CLL cells (MTT)” value in data set [5] (1 μg/ml) is on record as “no significant effect”. Also, the “viability of B-CLL cells (MTT)” value in [5] (10 μg/ml) was “marked reduction in the viability”.

Usually IC50 stands for the midpoint of a concentration-inhibition curve. As to `C=CC(C)(C)c1c2c(c(O)c3c(=O)c4ccc(O)c(O)c4oc13)C=CC(C)(C)O2` [M6, Macluraxanthone], the “increase in the percentage” value in data set [1] is on record as “significant increase”. Also, the “% Annexin V+ cells” value in data set [1] turned out to be 36.5%. Further, in data set [2], the “proliferation of ESKOL cells” value was “markedly and dose-dependently slowed down the proliferation”. For the same molecule, the IC50 in [9] was 4.24 µM; in [10], 2.88 µM. The “cytotoxic effect on purified normal B-lymphocytes (MTT)” value in [3] is listed as “somewhat sensitive”. Moreover, the “DNA breakdown” value in data set [6] is listed as “potent inducers of DNA breakdown”. Also, the “cytotoxic effect on normal PBMC (MTT)” value in [4] is recorded as “somewhat sensitive”. The “viability of B-CLL cells (MTT)” value was “no significant effect” in [5] (1 μg/ml) and “marked reduction in the viability” in [5] (10 μg/ml).

With allanxanthone C [M4], the antiplasmodial activity result in data set [7] is on record as “displays antiplasmodial activity”. Moreover, the “cytotoxicity on A375 cell line” value in [8] is listed as “cytotoxicity”.
